Values of other authors, collected in US20100166856A1, “PHARMACEUTICAL COMPOSITION IN THE FORM OF COATED MICROSPHERES FOR THE MODIFIED RELEASE OF A MUSCLE RELAXANT AND AN NSAID” (LABORATORIOS SENOSIAIN S.A. DE C.V., priority 2006, published 2010).
Each block holds one molecule with its values, some of them ahead of it.

How the values were obtained:
metabolism of tizanidine = settings: combination of tizanidine with rofecoxib
[1] = after administration
[2] = 22.5 mg of meloxicam

half-life time (after oral administration): approximately 2.5 hours
excretion in feces (in vivo): about 20%
excretion in urine (in vivo): 60%
Structure (SMILES): Clc1ccc2nsnc2c1NC1=NCCN1 [tizanidine]

pharmacokinetic interaction with tizanidine (metabolism of tizanidine): inhibits the metabolism of tizanidine
Structure (SMILES): CS(=O)(=O)c1ccc(C2=C(c3ccccc3)C(=O)OC2)cc1 [rofecoxib]

time at which maximum plasma concentration is reached [1]: 4 to 5 h
time of second concentration peak ([1]; indicates gastrointestinal re-circulation): 12 to 14 h
Structure (SMILES): Cc1cnc(NC(=O)C2=C(O)c3ccccc3S(=O)(=O)N2C)s1 [meloxicam]
effect of higher dose [2]: only an increase in gastrointestinal adverse effect was observed
